“Also recorded” adds a separate entry of the source.
Experiments:
[1] = biological target: T1, ShHTL7 (Striga hermonthica, UniProt A0A0M3PNA2); assay: In vitro hydrolysis assay with ShHTL7 (HPLC); type: biochemical; details: 10 μM substrate, 37° C.
T1 sequence (A0A0M3PNA2 1-271): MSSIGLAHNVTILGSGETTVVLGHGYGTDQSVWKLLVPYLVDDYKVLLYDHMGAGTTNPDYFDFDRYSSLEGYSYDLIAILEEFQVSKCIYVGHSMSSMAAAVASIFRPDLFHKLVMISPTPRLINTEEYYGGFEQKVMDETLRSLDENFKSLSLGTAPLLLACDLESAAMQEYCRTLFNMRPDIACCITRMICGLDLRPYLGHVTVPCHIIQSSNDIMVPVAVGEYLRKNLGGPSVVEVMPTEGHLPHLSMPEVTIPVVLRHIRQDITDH

[2] = system: rice d10 mutant; assay: Rice micro tillering bioassay, d10 mutant; type: in vivo; details: comparison between compounds
Method: Rice seeds (WT, d3, d10) were surface-sterilized by washing with 70% ethanol for 1 min and then with 2.5% sodium hypochlorite for 15 min. Seeds were then rinsed thoroughly with sterile MilliQ water and incubated in water for 2 days at 30° C. in the dark. Pre-germinated seeds were transferred to filter papers containing ½ strength MS medium in 90 mm petri dishes and incubated at 30° C. under fluorescent white light (130-180 μM m^−2 s^−1) for one week. Seven day-old seedlings were transferred to 50 ml falcon tubes (one seedling per tube) containing modified half-strength Hoagland nutrient solution and grown in greenhouse. Plants were treated with MPs at 2.5 μM-2.5×10-7 μM, using GR24 as positive control. The compounds were applied six times, twice a week. Number of tillers per plant, plant height and fresh biomass were measured at final harvest.
Statistical analyses were carried out using statistical software package R (version 3.2.2). Dose-response curves and Half Maximum Effective Concentrations (EC50) were calculated to determine optimum amount of MPs. Synthetic strigolactone analog GR24 was used as reference to estimate efficacy of selected compounds. EC50 and estimated response were calculated using drc package (https://cran.r390 project.org/web/packages/drc/) with a Four Parameter Logistic Curve (Dose Response Curve) (Ritz and Streibig, 2005).

[3] = Chemical stability of MPs in aqueous solution, monitored by HPLC; type: physicochemical; details: aqueous solution pH 6.8, 21° C., monitored at 24 h intervals up to 3 weeks
Method: Aqueous solutions of MPs (50 μg ml-1; pH 6.8) were incubated at 21° C. in amber HPLC vials. For sample preparation, 50 μl of an acetone solution (1 mg ml-1) was diluted to the final concentration with methanol (425 μl), water (500 μl) and 25 μl of 1-Indanol (1.0 mg ml-1 solution in acetone) as internal standard. […] The column was operated at 35° C. with a flow rate of 0.25 ml per min. Compounds eluted from the column were detected with a Diode array detector. Relative quantity of remaining (non-degraded) product was determined by comparison to the internal standard.

[4] = biological target: T1, ShHTL7; assay: Intrinsic tryptophan fluorescence assay; type: binding; details: ShHTL7 10 μM, mean±SE (n=3); read-out: Kd, affinity of ShHTL7
Description: Striga hermonthica ShHTL7 cDNA, GenBank accession KR013127 was kindly provided by Prof. Tadao Asami (The University of Tokyo, Japan). Arabidopsis thaliana D14 (AtD14) cDNA, GenBank accession AY097402 was synthesized and cloned into pUC57 (GenScript). ShHTL7 and OsD14 cDNAs were amplified by RT-PCR using the primers shown in Table 2, digested with BamHI and XhoI, and ligated into BamHI/XhoI digested pGEX-6P-1 expression vector (GE Healthcare). Integrity of plasmids was confirmed by sequencing (KAUST Bioscience Core Lab). The plasmids were then transformed into E. coli BL21 (DE3) cells. The cells were grown in LB broth containing ampicillin ([…]), incubated at 37° C. until OD600 of 0.6 and induced with 0.1 mM isopropyl-β-D-thiogalactopyranoside (IPTG) at 16° C. for 16 h. Harvested cells were re-suspended in lysis buffer: 50 mM Tris-HCl (pH 8.0), 200 mM NaCl, 0.5% Tween-20 and 2 mM dithiothreitol (DTT). After sonication on ice for 10 mins, the lysate was centrifuged at 25,000 rpm for 30 min at 4° C. Supernatant was allowed to bind to glutathione-sepharose beads (GE Healthcare) for 2 h at 4° C., washed 3 times with buffer (50 mM Tris-HCl (pH 8.0), 200 mM NaCl, 2 mM DTT), and eluted by cleaving GST moiety with PreScission™ Protease (GE Healthcare) at 4° C. overnight. Eluted protein was further purified by gel filtration using HiLoad 16/60 Superdex200 prep grade column (GE Healthcare) on an AKTA prime system (GE Healthcare) in gel filtration buffer (10 mM HEPES pH 7.5, 50 mM KCl and 2 mM DTT). Protein eluted as a sharp single peak and purity was judged by 4-15% SDS-PAGE (Bio-Rad). Purified protein was concentrated using an Amicon 10K filter unit (Merck Millipore) and stored at −80° C. until use. Similar expression and purification protocol was followed for OsD14 protein, except that OsD14 was eluted from Glutathione resins using 0.2 mM reduced Glutathione (Sigma) without cutting GST tag.
ShHTL7 tryptophans were excited at 280 nm and […] emission intensity was measured at 333 nm. ShHTL7 (10 μM) was incubated at various dilutions (0.2, 0.4, 0.8, 1.6, 3.12, 6.25, 12.5, 25 and 50 μM) of GR24 and MPs for 30 minutes at room temperature before measurement. Each concentration point was measured in triplicates. Emitted fluorescence was monitored using spectraMaxi3 (Molecular Devices) plate reader in 96-wells black plates. Changes in tryptophan fluorescence intensity occur due to conformational changes in protein when it is bound to ligand; differences in fluorescence intensity were recorded and analyzed. Data were normalized and dissociation coefficient (Kd) values were calculated by fitting to a binding saturation single-site model with GraphPad (PRISM 6).

[5] = system: Arabidopsis seedlings; assay: Arabidopsis lateral root density and primary root length; type: in vivo; details: 1.0 μM, 8 days old seedlings
Method: Sterilized Arabidopsis seeds were sown on half strength MS (with 0.5% sucrose+1% agar, 0.5 g L^−1 MES, pH 5.7) plates supplemented with GR24 or MPs (at 1.0 μM). Plates were stored at 4° C. in darkness for 3 days and then vertically grown at 22° C. in Percival incubator under long day condition (16 h at 22° C./8 h at 16° C. day/night, 60% relative humidity, 4000-5000 LUX white light) for 8 days. For determining the effect on lateral root density and primary root length, at least 30 seedlings were measured using publically available ImageJ software (http://rsbweb.nih.gov/ij/) after scanning roots.

Structure (SMILES)	Hydrolysis rate by ShHTL7 [1]	Relative activity in inhibiting rice tillering (d10) [2]	Stability in comparison to GR24 [3]	Kd [4]	Increase of primary root length [5]	Reduction of number of lateral roots / lateral root density [5]
COC(=O)/C(=C/OC1C=C(C)C(=O)O1)c1ccc([N+](=O)[O-])cc1 (racemic) [MP1, (E)-methyl 3-(4-methyl-5-oxo-2,5-dihydrofuran-2-yloxy)-2-(4-nitrophenyl)acrylate]	highest hydrolysis rates	weaker than GR24	slightly less stable than GR24	720 ± 550 nM	the most active compound; also recorded: more efficient than GR24	activity higher than that of GR24; also recorded: more efficient than GR24
COC(=O)/C(=C/OC1C=C(C)C(=O)O1)c1ccccc1 (racemic) [MP3, (E)-methyl 3-(4-methyl-5-oxo-2,5-dihydrofuran-2-yloxy)-2-phenylacrylate]	finally MP3; also recorded: higher hydrolysis activities with MP3 and MP7 than with GR24	the most active compound; also recorded: most pronounced inhibitory effect on tillering	more stable than GR24	10100 ± 5100 nM	weaker activity than GR24 and MP8	
COC(=O)/C(=C/OC1C=C(C)C(=O)O1)c1ccc(Cl)cc1 (centres unmarked) [MP7]	higher hydrolysis activities with MP3 and MP7 than with GR24	more active than GR24	more stable than GR24	1150 ± 310 nM	more efficient than GR24	slightly more active than GR24; also recorded: more efficient than GR24

From patent US11903386B2, “Strigolactone analogs and their usage in plant control” (King Abdullah University of Science and Technology, priority 2016, dated 2024)
